#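 How tested: cells in 96-well plates exposed to compound for 48 hours at five concentrations. The concentration for 50% growth inhibition is given as GI50. The concentration for full growth arrest is given as TGI.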
# What was measured:
# Assay in all cases: DTP human tumour cell line panel, 48 h
# HCT-15 colon = system: HCT-15 colon
# K-562 leukemia = system: K-562 leukemia
# TK-10 renal = system: TK-10 renal
# CAKI-1 renal = system: CAKI-1 renal
# HS 578T breast = system: HS 578T breast
# HCT-116 colon = system: HCT-116 colon
# SK-MEL-28 melanoma = system: SK-MEL-28 melanoma
# HCC-2998 colon = system: HCC-2998 colon
# NCI/ADR-RES ovarian = system: NCI/ADR-RES ovarian
# HOP-92 NSCLC = system: HOP-92 NSCLC
# SK-MEL-5 melanoma = system: SK-MEL-5 melanoma
# HT29 colon = system: HT29 colon
# MALME-3M melanoma = system: MALME-3M melanoma
# T-47D breast = system: T-47D breast
# U251 CNS = system: U251 CNS
# OVCAR-4 ovarian = system: OVCAR-4 ovarian
# MCF7 breast = system: MCF7 breast
# NCI-H522 lung = system: NCI-H522 lung
# SF-268 CNS = system: SF-268 CNS
# 786-0 renal = system: 786-0 renal
# NCI-H226 lung = system: NCI-H226 lung
# SK-OV-3 ovarian = system: SK-OV-3 ovarian
# RPMI-8226 leukemia = system: RPMI-8226 leukemia
# UACC-62 melanoma = system: UACC-62 melanoma
# SNB-75 CNS = system: SNB-75 CNS
# NCI-H460 lung = system: NCI-H460 lung
# M14 melanoma = system: M14 melanoma
# A498 renal = system: A498 renal
# UO-31 renal = system: UO-31 renal
# HOP-62 NSCLC = system: HOP-62 NSCLC
# MDA-MB-231 breast = system: MDA-MB-231 breast
# CCRF-CEM leukemia = system: CCRF-CEM leukemia
# BT-549 breast = system: BT-549 breast
# SR leukemia = system: SR leukemia
# MDA-MB-435 = system: MDA-MB-435
# OVCAR-3 ovarian = system: OVCAR-3 ovarian
# A549 NSCLC = system: A549 NSCLC
# SF-295 CNS = system: SF-295 CNS
# ACHN renal = system: ACHN renal
# IGROV1 ovarian = system: IGROV1 ovarian
# OVCAR-8 ovarian = system: OVCAR-8 ovarian
# NCI-H23 lung = system: NCI-H23 lung
# COLO 205 colon = system: COLO 205 colon
# EKVX NSCLC = system: EKVX NSCLC
# OVCAR-5 ovarian = system: OVCAR-5 ovarian
# UACC-257 melanoma = system: UACC-257 melanoma
# KM12 colon = system: KM12 colon
# SK-MEL-2 melanoma = system: SK-MEL-2 melanoma
# SF-539 CNS = system: SF-539 CNS
# DU-145 prostate = system: DU-145 prostate
# MOLT-4 leukemia = system: MOLT-4 leukemia
# SNB-19 CNS = system: SNB-19 CNS
# SW-620 colon = system: SW-620 colon
# PC-3 prostate = system: PC-3 prostate
# HL-60(TB) leukemia = system: HL-60(TB) leukemia
# LOX IMVI melanoma = system: LOX IMVI melanoma
# RXF 393 renal = system: RXF 393 renal
# SN12C renal = system: SN12C renal
compound,measurement,setting,value
O=C(c1cccs1)c1c(C(F)(F)F)n([O-])c2ccc(Cl)cc2[n+]1=O,GI50,HCT-15 colon,109 nM
same,TGI,HCT-15 colon,359 nM
same,GI50,K-562 leukemia,115 nM
same,TGI,K-562 leukemia,2620 nM
same,GI50,TK-10 renal,106 nM
same,TGI,TK-10 renal,333 nM
same,GI50,CAKI-1 renal,128 nM
same,TGI,CAKI-1 renal,671 nM
same,GI50,HS 578T breast,11400 nM
same,TGI,HS 578T breast,> 34000 nM
same,GI50,HCT-116 colon,46.5 nM
same,TGI,HCT-116 colon,723 nM
same,GI50,SK-MEL-28 melanoma,9460 nM
same,TGI,SK-MEL-28 melanoma,> 50000 nM
same,GI50,HCC-2998 colon,735 nM
same,TGI,HCC-2998 colon,1430 nM
same,GI50,NCI/ADR-RES ovarian,1750 nM
same,TGI,NCI/ADR-RES ovarian,6240 nM
same,GI50,HOP-92 NSCLC,866 nM
same,TGI,HOP-92 NSCLC,5680 nM
same,GI50,SK-MEL-5 melanoma,541 nM
same,TGI,SK-MEL-5 melanoma,2540 nM
same,GI50,HT29 colon,1290 nM
same,TGI,HT29 colon,> 50000 nM
same,GI50,MALME-3M melanoma,6360 nM
same,TGI,MALME-3M melanoma,13900 nM
same,GI50,T-47D breast,505 nM
same,GI50,U251 CNS,130 nM
same,TGI,U251 CNS,586 nM
same,GI50,OVCAR-4 ovarian,2610 nM
same,TGI,OVCAR-4 ovarian,> 50000 nM
same,GI50,MCF7 breast,94.2 nM
same,TGI,MCF7 breast,2480 nM
same,GI50,NCI-H522 lung,406 nM
same,TGI,NCI-H522 lung,6070 nM
same,GI50,SF-268 CNS,434 nM
same,TGI,SF-268 CNS,1360 nM
same,GI50,786-0 renal,36.2 nM
same,TGI,786-0 renal,69 nM
same,GI50,NCI-H226 lung,398 nM
same,TGI,NCI-H226 lung,2360 nM
same,GI50,SK-OV-3 ovarian,7810 nM
same,TGI,SK-OV-3 ovarian,20100 nM
same,GI50,RPMI-8226 leukemia,5 nM
same,TGI,RPMI-8226 leukemia,16.3 nM
same,GI50,UACC-62 melanoma,212 nM
same,TGI,UACC-62 melanoma,562 nM
same,GI50,SNB-75 CNS,2760 nM
same,TGI,SNB-75 CNS,> 50000 nM
same,GI50,NCI-H460 lung,359 nM
same,TGI,NCI-H460 lung,> 24900 nM
same,GI50,M14 melanoma,322 nM
same,TGI,M14 melanoma,1090 nM
same,GI50,A498 renal,10800 nM
same,TGI,A498 renal,18500 nM
same,GI50,UO-31 renal,185 nM
same,TGI,UO-31 renal,745 nM
same,GI50,HOP-62 NSCLC,64.9 nM
same,TGI,HOP-62 NSCLC,146 nM
same,GI50,MDA-MB-231 breast,124 nM
same,TGI,MDA-MB-231 breast,431 nM
same,GI50,CCRF-CEM leukemia,93.3 nM
same,GI50,BT-549 breast,289 nM
same,TGI,BT-549 breast,655 nM
same,GI50,SR leukemia,154 nM
same,TGI,SR leukemia,621 nM
same,GI50,MDA-MB-435,289 nM
same,TGI,MDA-MB-435,2020 nM
same,GI50,OVCAR-3 ovarian,461 nM
same,TGI,OVCAR-3 ovarian,2850 nM
same,GI50,A549 NSCLC,168 nM
same,TGI,A549 NSCLC,730 nM
same,GI50,SF-295 CNS,149 nM
same,TGI,SF-295 CNS,703 nM
same,GI50,ACHN renal,16.7 nM
same,TGI,ACHN renal,44.2 nM
same,GI50,IGROV1 ovarian,56.3 nM
same,TGI,IGROV1 ovarian,1650 nM
same,GI50,OVCAR-8 ovarian,1260 nM
same,TGI,OVCAR-8 ovarian,> 20900 nM
same,GI50,NCI-H23 lung,454 nM
same,TGI,NCI-H23 lung,2260 nM
same,GI50,COLO 205 colon,569 nM
same,TGI,COLO 205 colon,10200 nM
same,GI50,EKVX NSCLC,185 nM
same,TGI,EKVX NSCLC,523 nM
same,GI50,OVCAR-5 ovarian,2020 nM
same,TGI,OVCAR-5 ovarian,9680 nM
same,GI50,UACC-257 melanoma,614 nM
same,TGI,UACC-257 melanoma,3360 nM
same,GI50,KM12 colon,111 nM
same,TGI,KM12 colon,302 nM
same,GI50,SK-MEL-2 melanoma,912 nM
same,TGI,SK-MEL-2 melanoma,> 20800 nM
same,GI50,SF-539 CNS,282 nM
same,TGI,SF-539 CNS,568 nM
same,GI50,DU-145 prostate,311 nM
same,TGI,DU-145 prostate,547 nM
same,GI50,MOLT-4 leukemia,28.9 nM
same,TGI,MOLT-4 leukemia,340 nM
same,GI50,SNB-19 CNS,1210 nM
same,TGI,SNB-19 CNS,> 14800 nM
same,GI50,SW-620 colon,248 nM
same,TGI,SW-620 colon,4680 nM
same,GI50,PC-3 prostate,97.2 nM
same,TGI,PC-3 prostate,339 nM
same,GI50,HL-60(TB) leukemia,152 nM
same,TGI,HL-60(TB) leukemia,1510 nM
same,GI50,LOX IMVI melanoma,65.3 nM
same,TGI,LOX IMVI melanoma,131 nM
same,GI50,RXF 393 renal,2090 nM
same,TGI,RXF 393 renal,11700 nM
same,GI50,SN12C renal,175 nM
same,TGI,SN12C renal,572 nM

# — PubChem BioAssay (NCI)
